# Patent publication US20230357239A1, “PYRIDO[2,3-D]PYRIMIDIN-4-AMINES AS SOS1 INHIBITORS” (Bayer Aktiengesellschaft, priority 2020, published 2023)
# Target: human SOS1 (SOS1) with human K-RasG12C (Homo sapiens (Human), UniProt Q07889)
# Experiment: hK-RasG12C interaction assay with hSOS1 (HTRF)
# Type: binding
# Conditions: GST-hK-RasG12C and His-hSOS1, 60 min incubation at 20° C, mean, read-out: K-RasG12C - SOS interaction assay IC50 - [mol/l] (mean)
# Description: Biochemical Assay: hK-RasG12C Interaction Assay with hSOS1
# This assay quantifies the equilibrium interaction of human SOS1 (SOS1) with human K-Ras^G12C (K-RasG12C). Detection of the interaction is achieved by measuring homogenous time-resolved fluorescence resonance energy transfer (HTRF) from antiGST-Europium (FRET donor) bound to GST-K-RasG12C to anti-6His-XL665 bound to His-tagged hSOS1 (FRET-acceptor).
# The assay buffer containes 5 mM HEPES pH 7.4 (Applichem), 150 mM NaCl (Sigma), 10 mM EDTA (Promega), 1 mM DTT (Thermofisher), 0.05% BSA Fraction V, pH 7.0, (ICN Biomedicals), 0.0025% (v/v) Igepal (Sigma) and 100 mM KF (FLUKA).
# Concentrations of protein batches used are optimized to be within the linear range of the HTRF signal. A Ras working solution is prepared in assay buffer containing typically 10 nM GST-hK-RasG12C and 2 nM antiGST-Eu(K) (Cisbio, France). A SOS1 working solution is prepared in assay buffer containing typically 20 nM His-hSOS1 and 10 nM anti-6His-XL665 (Cisbio, France). An inhibitor control solution is prepared in assay buffer containing 10 nM anti-6His-XL665 without SOS1.
# Fifty nl of a 100-fold concentrated solution of the test compound in DMSO are transferred into a black microtiter test plate (384 or 1536, Greiner Bio-One, Germany).
# For this, either a Hummingbird liquid handler (Digilab, MA, USA) or an Echo acoustic system (Labcyte, CA, USA) is used.
# All steps of the assay are performed at 20° C. A volume of 2.5 μl of the Ras working solution is added to all wells of the test plate using a Multidrop dispenser (Thermo Labsystems). After 2 min preincubation, 2.5 μl of the SOS1 working solution are added to all wells except for those wells at the side of the test plate that are subsequently filled with 2.5 μl of the inhibitor control solution. After 60 min incubation the fluorescence is measured with a Pherastar (BMG, Germany) using the HTRF module (excitation 337 nm, emission 1: 620 nm, emission 2: 665 nm).
# The ratiometric data (emission 2 divided by emission 1) are normalized using the controls (DMSO=0% inhibition, inhibition control wells with inhibitor control solution=100% inhibition). […] IC50 values are calculated by 4-Parameter fitting using a commercial software package (Genedata Screener, Switzerland).
# human SOS1 (SOS1) with human K-RasG12C, sequence (Q07889 564-1049): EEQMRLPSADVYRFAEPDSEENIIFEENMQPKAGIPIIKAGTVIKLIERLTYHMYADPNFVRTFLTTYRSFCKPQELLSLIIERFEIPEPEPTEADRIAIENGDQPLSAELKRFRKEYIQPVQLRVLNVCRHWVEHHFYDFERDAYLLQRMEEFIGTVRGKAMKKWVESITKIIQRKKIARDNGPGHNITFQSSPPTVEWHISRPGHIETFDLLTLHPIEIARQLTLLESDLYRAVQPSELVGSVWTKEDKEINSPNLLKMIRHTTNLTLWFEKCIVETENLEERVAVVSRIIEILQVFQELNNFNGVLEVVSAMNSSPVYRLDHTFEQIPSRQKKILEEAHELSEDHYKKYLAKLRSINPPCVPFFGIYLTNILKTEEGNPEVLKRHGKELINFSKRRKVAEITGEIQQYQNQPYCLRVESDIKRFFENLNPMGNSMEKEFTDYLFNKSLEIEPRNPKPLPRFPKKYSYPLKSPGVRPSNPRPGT
row,SMILES,IC50
1,"CC(=O)N1CC2(C1)CN(c1cc3c(N[C@H](C)c4cccc(C(F)(F)C(C)(C)O)c4F)nc(C)nc3nc1C(F)(F)F)C2 [Example 70, 1-{6-[4-({(1R)-1-[3-(1,1-difluoro-2-hydroxy-2-methylpropyl)-2-fluorophenyl]ethyl}amino)-2-methyl-7-(trifluoromethyl)pyrido[2,3-d]pyrimidin-6-yl]-2,6-diazaspiro[3.3]heptan-2-yl}ethan-1-one]",5.47 nM
2,"Cc1nc(N[C@H](C)c2cccc(C(F)(F)F)c2C)c2cc(N3CCCS3(=O)=O)cnc2n1 [Example 34, 2-[2-methyl-4-({(1R)-1-[2-methyl-3-(trifluoromethyl)phenyl]ethyl}amino)pyrido[2,3-d]pyrimidin-6-yl]-1 lambda^6,2-thiazolidine-1,1-dione]",13 nM
3,"COc1nc2nc(C)nc(N[C@H](C)c3cccc(C(F)(F)F)c3C)c2cc1N1CCCS1(=O)=O [Example 23, 2-[7-methoxy-2-methyl-4-({(1R)-1-[2-methyl-3-(trifluoromethyl)phenyl]ethyl}amino)pyrido[2,3-d]pyrimidin-6-yl]-1 lambda^6,2-thiazolidine-1,1-dione]",2640 nM
4,"CC(=O)N1CCN(c2cnc3nc(C)nc(N[C@H](C)c4cccc(C(F)(F)C(C)(C)O)c4F)c3c2)CC1 [Example 53, 1-{4-[4-({(1R)-1-[3-(1,1-difluoro-2-hydroxy-2-methylpropyl)-2-fluorophenyl]ethyl}amino)-2-methylpyrido[2,3-d]pyrimidin-6-yl]piperazin-1-yl}ethan-1-one]",3.34 nM
5,"CC(=O)N1CCC(c2cc3c(N[C@H](C)c4cccc(C(F)(F)F)c4C)nc(C)nc3nc2C(F)(F)F)CC1 [Example 42, 1-{4-[2-methyl-4-({(1R)-1-[2-methyl-3-(trifluoromethyl)phenyl]ethyl}amino)-7-(trifluoromethyl)pyrido[2,3-d]pyrimidin-6-yl]piperidin-1-yl}ethan-1-one]",28.9 nM
6,"CC(=O)N1C[C@@H]2C[C@H]1CN2c1cc2c(N[C@H](C)c3cccc(C(F)(F)C(C)(C)O)c3F)nc(C)nc2nc1C [Example 64, 1-{(1 S,4S)-5-[4-({(1R)-1-[3-(1,1-difluoro-2-hydroxy-2-methylpropyl)-2-fluorophenyl]ethyl}amino)-2,7-dimethylpyrido[2,3-d]pyrimidin-6-yl]-2,5-diazabicyclo[2.2.1]heptan-2-yl}ethan-1-one]",4.35 nM
7,"C[C@@H](Nc1ncnc2ncc(Br)cc12)c1cccc(C(F)(F)F)c1 [Example 1, 6-bromo-N-{(1R)-1-[3-(trifluoromethyl)phenyl]ethyl}pyrido[2,3-d]pyrimidin-4-amine]",409 nM
8,"CC(=O)N1CC2(CCC(c3cnc4nc(C)nc(N[C@H](C)c5cccc(C(F)(F)F)c5C)c4c3)CC2)C1 [Example 28, 1-{7-[2-methyl-4-({(1R)-1-[2-methyl-3-(trifluoromethyl)phenyl]ethyl}amino)pyrido[2,3-d]pyrimidin-6-yl]-2-azaspiro[3.5]nonan-2-yl}ethan-1-one]",9.4 nM
9,"CC(=O)N1CC=C(c2cnc3nc(C)nc(N[C@H](C)c4cccc(C(F)(F)C(C)(C)O)c4F)c3c2)CC1 [Example 46, 1-{4-[4-({(1R)-1-[3-(1,1-difluoro-2-hydroxy-2-methylpropyl)-2-fluorophenyl]ethyl}amino)-2-methylpyrido[2,3-d]pyrimidin-6-yl]-3,6-dihydropyridin-1(2H)-yl}ethan-1-one]",2.7 nM
10,"CC(=O)N1CCC(c2cnc3nc(C)nc(N[C@H](C)c4cccc(C(F)(F)F)c4C)c3c2)C1 (mixture of isomers) [Example 31, 1-{(3RS)-3-[2-methyl-4-({(1R)-1-[2-methyl-3-(trifluoromethyl)phenyl]ethyl}amino)pyrido[2,3-d]pyrimidin-6-yl]pyrrolidin-1-yl}ethan-1-one]",11.9 nM
11,"CC(=O)N1C[C@H]2C[C@@H]1CN2c1cnc2nc(C)nc(N[C@H](C)c3cccc(C(F)(F)C(C)(C)O)c3F)c2c1 [Example 51, 1-{(1 R,4R)-5-[4-({(1R)-1-[3-(1,1-difluoro-2-hydroxy-2-methylpropyl)-2-fluorophenyl]ethyl}amino)-2-methylpyrido[2,3-d]pyrimidin-6-yl]-2,5-diazabicyclo[2.2.1]heptan-2-yl}ethan-1-one]",9.79 nM
12,"Cc1nc(N[C@H](C)c2cccc(C(F)F)c2F)c2cc(N3CCCS3(=O)=O)c(C)nc2n1 [Example 39, 2-[4-({(1R)-1-[3-(difluoromethyl)-2-fluorophenyl]ethyl}amino)-2,7-dimethylpyrido[2,3-d]pyrimidin-6-yl]-1 lambda^6,2-thiazolidine-1,1-dione]",16.2 nM

# Continued by falling IC50, values first:
row,IC50,SMILES
1,949 nM,"COc1nc2nc(C)nc(N[C@H](C)c3cccc(C(F)(F)F)c3C)c2cc1C1=CCN(C(C)=O)CC1 [Example 21, 1-{4-[7-methoxy-2-methyl-4-({(1R)-1-[2-methyl-3-(trifluoromethyl)phenyl]ethyl}amino)pyrido[2,3-d]pyrimidin-6-yl]-3,6-dihydropyridin-1(2H)-yl}ethan-1-one]"
2,805 nM,"COc1nc2nc(C)nc(N[C@H](C)c3cccc(C(F)(F)F)c3C)c2cc1C1CCN(C(C)=O)CC1 [Example 22, 1-{4-[7-methoxy-2-methyl-4-({(1R)-1-[2-methyl-3-(trifluoromethyl)phenyl]ethyl}amino)pyrido[2,3-d]pyrimidin-6-yl]piperidin-1-yl}ethan-1-one]"
3,66.4 nM,"COc1cnc2nc(C)nc(N[C@H](C)c3cccc(C(F)(F)F)c3C)c2c1 [Example 32, 6-methoxy-2-methyl-N-{(1R)-1-[2-methyl-3-(trifluoromethyl)phenyl]ethyl}pyrido[2,3-d]pyrimidin-4-amine]"
4,29.5 nM,"CC(=O)N1CC2(C1)CN(c1cc3c(N[C@H](C)c4cccc(C(F)F)c4F)nc(C)nc3nc1C(F)(F)F)C2 [Example 69, 1-{6-[4-({(1R)-1-[3-(difluoromethyl)-2-fluorophenyl]ethyl}amino)-2-methyl-7-(trifluoromethyl)pyrido[2,3-d]pyrimidin-6-yl]-2,6-diazaspiro[3.3]heptan-2-yl}ethan-1-one]"
5,21.1 nM,"Cc1nc(N[C@H](C)c2cccc(C(F)(F)F)c2C)c2cc(-c3cncnc3)cnc2n1 [Example 45, 2-methyl-N-{(1R)-1-[2-methyl-3-(trifluoromethyl)phenyl]ethyl}-6-(pyrimidin-5-yl)pyrido[2,3-d]pyrimidin-4-amine]"
6,15.7 nM,"CC(=O)N1CC2(C1)CN(c1cnc3nc(C)nc(N[C@H](C)c4cccc(C(F)(F)F)c4C)c3c1)C2 [Example 8, 1-{6-[2-methyl-4-({(1R)-1-[2-methyl-3-(trifluoromethyl)phenyl]ethyl}amino)pyrido[2,3-d]pyrimidin-6-yl]-2,6-diazaspiro[3.3]heptan-2-yl}ethan-1-one]"
7,7.71 nM,"CC(=O)N1CCN(c2cnc3nc(C)nc(N[C@H](C)c4cccc(C(F)(F)F)c4C)c3c2)CC1 [Example 35, 1-{4-[2-methyl-4-({(1R)-1-[2-methyl-3-(trifluoromethyl)phenyl]ethyl}amino)pyrido[2,3-d]pyrimidin-6-yl]piperazin-1-yl}ethan-1-one]"
8,6.35 nM,"CC(=O)N1CC2(C1)CN(c1cnc3nc(C)nc(N[C@H](C)c4cccc(C(F)(F)F)c4C)c3c1)C2 [Example 13, 1-{6-[2-methyl-4-({(1R)-1-[2-methyl-3-(trifluoromethyl)phenyl]ethyl}amino)pyrido[2,3-d]pyrimidin-6-yl]-2,6-diazaspiro[3.3]heptan-2-yl}ethan-1-one-hydrogen chloride (1/1)]"
9,5.78 nM,"CC(=O)N1CC=C(c2cnc3nc(C)nc(N[C@H](C)c4cccc(C(F)(F)F)c4C)c3c2)CC1 [Example 25, 1-{4-[2-methyl-4-({(1R)-1-[2-methyl-3-(trifluoromethyl)phenyl]ethyl}amino)pyrido[2,3-d]pyrimidin-6-yl]-3,6-dihydropyridin-1(2H)-yl}ethan-1-one]"
10,3.52 nM,"CC(=O)N1CC2(C1)CN(c1cnc3nc(C)nc(N[C@H](C)c4cccc(C(F)(F)C(C)(C)O)c4F)c3c1)C2 [Example 54, 1-{6-[4-({(1R)-1-[3-(1,1-difluoro-2-hydroxy-2-methylpropyl)-2-fluorophenyl]ethyl}amino)-2-methylpyrido[2,3-d]pyrimidin-6-yl]-2,6-diazaspiro[3.3]heptan-2-yl}ethan-1-one]"
11,2.53 nM,"CC(=O)N1CCN(c2cnc3nc(C)nc(N[C@H](C)c4cccc(C(F)(F)F)c4C)c3c2)C(=O)C1 [Example 61, 4-acetyl-1-[2-methyl-4-({(1R)-1-[2-methyl-3-(trifluoromethyl)phenyl]ethyl}amino)pyrido[2,3-d]pyrimidin-6-yl]piperazin-2-one]"
